Test results as given in patent US6060608A, “Analogs of CC-1065 and the duocarmycins” (The Scripps Research Institute, priority 1999, dated 2000).

Legend:
[1] = system: L1210; assay: In vitro cytotoxic activity, L1210; conditions: N-BOC derivatives
[2] = Solvolysis regioselectivity (acid-catalyzed nucleophilic addition to the cyclopropane); format: physicochemical; conditions: C9 addition versus ring expansion
Description: Solvolysis: Reactivity. Two fundamental characteristics of the alkylation subunits have proven important in the studies to date. The first is the stereoelectronically-controlled acid-catalyzed ring-opening of the cyclopropane which dictates preferential addition of a nucleophile to the least substituted cyclopropane carbon. With the CBI series of modified alkylation subunits where this stereoelectronic alignment of the C8b-C9 bond is nearly optimized, exclusive (≥20:1) addition to the C9 center with cleavage of the C8b-C9 bond is observed. […] Thus, the impact of the difluorocyclopropane substitution on the reactivity and reaction regioselectivity of CBI was examined.
Solvolysis: Regioselectivity. Treatment of both 217 and 219 with catalytic CF3 SO3 H (0.1 equiv) in CH3 OH (0° C.) rapidly and cleanly provided a single characterizable product 225 (30 min, 90%) or 226 (10 min, 79%), FIG. 33. […] Furthermore, the ^1 H-^13 C HMBC NMR spectrum of 226 established the carbon-carbon connectivity of C1 (δ51.0) with the CF2 carbon (δ50.3, t) and C9b (δ125.0). No connectivity between the key CF2 carbon (δ50.3, t) and […] was detected as required of the ring expansion regioisomer. This was unambiguously established by conducting the solvolysis in THF-H2 O catalyzed by CF3 SO3 H (0.12 equiv) which cleanly provided 227 (18 h, 85%), FIG. 33. […]

[3] = system: w794 duplex DNA; assay: DNA alkylation selectivity and efficiency within w794 DNA, thermally-induced strand cleavage and PAGE; format: biochemical, SV40
Procedure, shortened: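 5′-32P end-labeled w794 duplex DNA in TE buffer (pH 7.2–7.5) incubated with agent in DMSO across concentrations, 4–37 °C for 24–76 h depending on agent. Unbound agent removed by EtOH precipitation; thermolysis 100 °C, 30 min cleaves alkylation sites, mapped by denaturing 8% PAGE beside Sanger standards and autoradiography.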

[4] = natural enantiomers, 37° C., 72 h

CC(C)(C)OC(=O)N1CC2CC23C1=CC(=O)c1ccc(C#N)cc13 (stereo not shown) [compound 25, N-(tert-Butyloxycarbonyl)-7-cyano-1,2,9,9a-tetrahydrocyclopropa[c]benz[e]indol-4-one]
relative cytotoxic potency of natural versus unnatural enantiomers [1]: 4 × | solvolysis regioselectivity, addition to the least substituted or C9 cyclopropane carbon [2]: nucleophilic addition to the least substituted carbon of the activated cyclopropane was observed exclusively | DNA alkylation sequence selectivity [3]: 5'-AA>5'-TA | concentration providing detectable DNA alkylation ([3]; both enantiomers, 37° C., 24-72 h): 10^-2 to 10^-3 M | concentration at which DNA alkylation is detectable [3, 4]: 10^-3 M | concentration at which DNA alkylation is prominent [3, 4]: 10^-2 M | DNA alkylation less efficient than 34-39 ([3]; two enantiomers of 25): 10^4 ×
